The record followed here is patent US20040186170A1, “Benzofuran derivatives, pharmaceutical composition containing the same, and a process for the preparation of the active ingredient” (EGIS GYOGYSZERGYAR, priority 1998, published 2004).

Where a name gives a salt, the structure may show the parent alone. Read-outs that look alike come from different tables or passages of the source.

In test [1] the target is T1, 5-HT1A receptor (Rattus norvegicus, UniProt P19327).
T1 sequence (P19327 1-422): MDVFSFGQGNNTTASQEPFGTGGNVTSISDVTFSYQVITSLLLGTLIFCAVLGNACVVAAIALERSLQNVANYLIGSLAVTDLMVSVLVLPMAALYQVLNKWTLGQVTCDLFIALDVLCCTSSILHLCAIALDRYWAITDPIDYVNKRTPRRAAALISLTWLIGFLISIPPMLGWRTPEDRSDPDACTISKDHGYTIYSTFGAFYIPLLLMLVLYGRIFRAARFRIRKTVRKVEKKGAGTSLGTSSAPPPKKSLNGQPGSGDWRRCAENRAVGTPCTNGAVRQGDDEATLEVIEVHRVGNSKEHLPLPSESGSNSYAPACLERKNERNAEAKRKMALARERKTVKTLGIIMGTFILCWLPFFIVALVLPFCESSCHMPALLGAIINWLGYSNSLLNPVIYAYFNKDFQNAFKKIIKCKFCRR
In words: 5-HT1A receptor binding assay.

The test system of test [2] is isolated perfused rat heart. In words: TTC prolonging effect in isolated Langendorff rat hearts (global ischemia).
Procedure: Measurement of the cardioprotective effect in ischemic rat heart (Langendorff) preparation
The time lapsed after starting global ischemia until the beginning of contracture (i.e. time to contracture=TTC) is prolonged by several cardioprotective compounds, thus, the effectiveness of the compounds can be examined by measuring TTC.
Male Sprague-Dawley rats weighing 300 to 350 g were injected with 2500 IU (0.5 ml) of heparin i.p. and 10 minutes later the animals were anaesthetized with sodium pentobarbital/5-ethyl-5-(1-methylbutyl)-2,4,6(1H,3H,5H)-pyrimidinetrione sodium salt/ in a dose of 60 mg/kg i.p. The heart was quickly excised, and the aorta was connected to a cannula fixed to a Langendorff apparatus. The heart was perfused at a constant pressure (8000 Pa) with a modified carbogenized Krebs-Henseleit solution. The composition of the solution was the following (in mM): NaCl 118, KCl 4.7, MgSO4 1.6, CaCl2 2.5, NaHCO3 24.88, KH2PO4 1.18, EDTA 0.5, glucose 11. Partial CO2 pressure and pH of the solution were maintained within the physiological limits (pCO2 4000-4650 Pa, pH=7.3-7.45).
A hole was cut in the wall of the left atrium and a water-filled plastic balloon attached to a metal cannula was inserted into the left ventricle. End diastolic pressure of the left ventricle was set to a value between 666-1333 Pa during the equilibration period by changing the volume of the liquid in the balloon, however, later it was not modified.
After a 20 minutes' equilibration period, the hearts were perfused for 10 minutes with the vehicle (0.04% of dimethyl sulfoxide), in case of the control group, or with a solution of the test substance at 10^−6 or 10^−5 M concentration, in case of the treated groups. The activity of the test compound was not examined further when, at the end of the 10 minutes' period, the systolic pressure of the left ventricle was reduced by more than 20%, compared to the control value determined before the treatment.
Global ischemia was initiated by completely shutting off the perfusate flow and carbogenization for 25 minutes. The time period from the beginning of ischemia until the formation of myocardial contracture i.e. an increase of 666 Pa in left ventricular end diastolic pressure (TTC) was measured.
3 parallel experiments were performed with the test compounds at each concentration and parameters of 3 additional vehicle (0.04% dimethyl sulfoxide) treated hearts were measured along with the test substance.
Individual TTC values were averaged, and the effect of the test substances was expressed as a percentage change compared to the vehicle treated group. […] As a reference substance, lemakalim i.e. (3S)-trans-3,4-dihydro-3-hydroxy-2,2-dimethyl-4-(2-oxo-1-pyrrolidinyl)-2H-1-benzpyrane-6-carbonitrile was used.
For test [3], the system named is Male Wistar rats. Put plainly: Anxiolytic effect, Vogel's conflict test. The settings on record: half an hour before the examination, tolerated number of electric shocks.
Procedure: Determination of the Anxiolytic Effect on the Basis of Vogel's Conflict Test
The anxiolytic effect was examined by the method of Vogel et al./Vogel, J. R., Beer, B., Clody, D. E., Psychopharmacologia (Berl.), 21, 1 (1971)/. Male Wistar rats weighing 180 to 200 g were left to be thirsty for 48 hours and starved for 24 hours before the test. The substances to be examined and the carriers, respectively, were administered to the animals half an hour before the examination. In the test chamber, the rats were allowed to drink from the drinking tube protruding into the chamber. Following every 20th lick, the apparatus emitted an electric shock of 0.7 mA through the drinking tube. During the test lasting for 5 minutes, the number of those electric shocks was registered which the animals accepted in order to quench their thirst. The effect of the compounds was expressed as the increase of the tolerated number of electric shocks in percentage.
Meprobamate/2-methyl-2-propyltri-methylenecarbamate/ was used as the reference substance.
Test [4] concerns Male Sprague-Dawley rats. Put plainly: Elevated plus-maze test on rats. It counts as in vivo, rat. The conditions noted are these: for MED (in mg/kg) p.o.: 60 minutes prior to the test, based on the time spent in the open arms. As for the experimental part:
Elevated Plus-Maze Test on Rats
The test was carried out according to a modified method of Pelow et al./J. Neurosci. Methods, 14, 149 (1985)/. The elevated plus-maze consists of two open and two 40 cm wall enclosed arms of the same size (50×15 cm) arranged in the shape of a cross. The arms of the same type are opposite to each other. The junction of the four arms forms a central square area (15×15 cm). The apparatus is made of a wooden material elevated to a height of 50 cm and illuminated by a dim light from above. Male Sprague-Dawley rats weighing 220 to 260 g were used for the experiment.
The rats were treated with the test or reference compounds 60 minutes prior to the test. The animals were then placed onto a central square area and were subjected to the test for 5 minutes. The following 4 different parameters were determined:
time spent in the open arms;
time spent in the closed arms;
number of entries into the open arms;
number of entries into the closed arms.
A compound was considered to be effective where significant increase was found either in the time spent in the open arms (in sec) or in the number of entries into the open arms when compared to the control animals (in percentage). Minimum effective doses (MED) were determined based on the time spent in the open arms for each compound examined. Buspirone was used as the reference material.

The mark [5] stands for this setting: 10^−5 M, time to contracture, change compared to the vehicle treated group.
The mark [6] stands for this setting: 10^−6 M, time to contracture, change compared to the vehicle treated group.

As for `Cc1ccc(C2(O)CCN(CC(O)COc3cccc4c3OC(C)(C)C4)CC2)cc1` (stereo not drawn) [Example 30, 1-/3-(2,2-Dimethyl-2,3-dihydrobenzofuran-7-yloxy)-2-hydroxypropyl/-4-hydroxy-4-(4-methyl-phenyl)piperidine hydrochloride], the Ki in test [1] came out at 5 nM.
Turning to `CC1(C)Cc2cccc(OCC(O)CN3CCN(c4cccc(F)c4)CC3)c2O1` (stereo not drawn) [Example 66, 1-/3-(2,2-Dimethyl-2,3-dihydrobenzofuran-7-yloxy)-2-hydroxypropyl/-4-(3-fluorophenyl)-piperazine], in test [2] (setting [5]), the “TTC change (in %) at 10^−5 M” value is given as 66%. The “TTC change (in %) at 10^−6 M” value in test [2] (setting [6]) was determined as 5%.
On to `COc1ccc(N2CCN(CC(O)COc3cccc4c3OC(C)(C)C4)CC2)cc1` (stereo not drawn) [Example 68, 1-/3-(2,2-Dimethyl-2,3-dihydrobenzofuran-7-yloxy)-2-hydroxypropyl/-4-(4-methoxyphenyl)-piperazine], for which the “MED in mg/kg ip.” value in test [3] is listed as 20 mg/kg. In test [2] (setting [5]), the “TTC change (in %) at 10^−5 M” value is listed as 43%. For the same molecule, in test [2] (setting [6]), the “TTC change (in %) at 10^−6 M” value is 0%.
For `CC1(C)Oc2ccc(C#N)cc2[C@@H](N2CCCC2=O)[C@@H]1O` [lemakalim, (3S)-trans-3,4-dihydro-3-hydroxy-2,2-dimethyl-4-(2-oxo-1-pyrrolidinyl)-2H-1-benzpyrane-6-carbonitrile, reference compound], the “TTC change (in %) at 10^−5 M” value in test [2] (setting [5]) is given as 55%. For the same molecule, the “TTC change (in %) at 10^−6 M” value in test [2] (setting [6]) turned out to be 20%.
Consider `CC1(C)Cc2cccc(OCC(O)CN3CCC(O)(c4cccc(C(F)(F)F)c4)CC3)c2O1` (stereo not drawn) [Example 9, 1-/3-(2,2-Dimethyl-2,3-dihydrobenzofuran-7-yloxy)-2-hydroxypropyl/-4-hydroxy-4-(3-tri-fluoromethylphenyl)piperidine hydrochloride], for which, in test [1], the inhibition constant Ki is 20 nM. In addition, in test [2], the “TTC change (in %) at 10^−6 M” value is on record as 90% and the “TTC prolongation compared with lemakalim” value is “surpasses remarkably also the effect of lemakalim”.
With `CC1(C)Cc2cccc(OCC(O)CN3CCN(c4ccc(F)cc4)CC3)c2O1` (stereo not drawn) [Example 63, 1-/3-(2,2-Dimethyl-2,3-dihydrobenzofuran-7-yloxy)-2-hydroxypropyl/-4-(4-fluorophenyl)-piperazine], the “TTC change (in %) at 10^−5 M” value in test [2] (setting [5]) turned out to be 111%. In addition, the “TTC change (in %) at 10^−6 M” value in test [2] (setting [6]) is given as −3%.
On to `CC1(C)Cc2cccc(OCC(O)CN3CCC(O)(c4ccc(F)cc4)CC3)c2O1` (stereo not drawn) [Example 16, 1-/3-(2,2-Dimethyl-2,3-dihydrobenzofuran-7-yloxy)-2-hydroxypropyl/-4-hydroxy-4-(4-fluoro-phenyl)piperidine], for which, in test [4], the “MED (in mg/kg) p.o.” value turned out to be 1 mg/kg. The molecule also had a Ki in test [1] of 3 nM. Further, in test [2], the “TTC change (in %) at 10^−5 M” value is recorded as 78% and the “TTC change (in %) at 10^−6 M” value is recorded as 5%.
`CC1(C)Cc2cccc(OCC(O)CN3CCC(O)(c4cccc(Cl)c4)CC3)c2O1` (stereo not drawn) [Example 24, 1-/3-(2,2-Dimethyl-2,3-dihydrobenzofuran-7-yloxy)-2-hydroxypropyl/-4-hydroxy-4-(3-chloro-phenyl)-piperidine hydrochloride]: the “MED (in mg/kg) p.o.” value in test [4] amounted to 3 mg/kg. The molecule also showed a Ki in test [1] of 12 nM. In addition, the “TTC change (in %) at 10^−6 M” value in test [2] is 47%.
Regarding `CC1(C)Cc2cccc(OCC(O)CN3CCC(O)(c4ccccc4)CC3)c2O1` (stereo not drawn) [Example 20, 1-/3-(2,2-Dimethyl-2,3-dihydrobenzofuran-7-yloxy)-2-hydroxypropyl/-4-hydroxy-4-phenyl-piperidine hydrochloride], the affinity in test [1], expressed as Ki, was 6 nM. In addition, in test [2], the “TTC change (in %) at 10^−5 M” value stood at 65% and the “TTC change (in %) at 10^−6 M” value was determined as 18%.
In test [1], `CC1(C)Cc2cccc(OCC(O)CN3CCC(O)(c4ccc(Cl)cc4)CC3)c2O1` (stereo not drawn) [Example 14, 1-/3-(2,2-Dimethyl-2,3-dihydrobenzofuran-7-yloxy)-2-hydroxypropyl/-4-hydroxy-4-(4-chloro-phenyl)piperidine] registered a Ki of 10 nM.
Consider `CC1(C)Cc2cccc(OCC(O)CN3CCN(c4ccc(Cl)cc4)CC3)c2O1` (stereo not drawn) [Example 73, 1-/3-(2,2-Dimethyl-2,3-dihydrobenzofuran-7-yloxy)-2-hydroxypropyl/-4-(4-chlorophenyl)-piperazine], for which the “TTC change (in %) at 10^−5 M” value in test [2] (setting [5]) came out at 49%. Moreover, the “TTC change (in %) at 10^−6 M” value in test [2] (setting [6]) was determined as 19%.
As to `COc1ccc2cc(C3CCN(CC(O)COc4cccc5c4OC(C)(C)C5)CC3)ccc2c1.Cl` (stereo not drawn) [Example 23, 1-/3-(2,2-Dimethyl-2,3-dihydrobenzofuran-7-yloxy)-2-hydroxypropyl/-4-(6-methoxynaphth-2-yl)piperidine hydrochloride], the “MED (in mg/kg) p.o.” value in test [4] amounted to 3 mg/kg.
For the molecule `COc1cccc(N2CCN(CC(O)COc3cccc4c3OC(C)(C)C4)CC2)c1.Cl.Cl` (stereo not drawn) [Example 76, 1-/3-(2,2-Dimethyl-2,3-dihydrobenzofuran-7-yloxy)-2-hydroxypropyl/-4-(3-methoxyphenyl)-piperazine dihydrochloride], the “TTC change (in %) at 10^−5 M” value in test [2] (setting [5]) is 80%. The “TTC change (in %) at 10^−6 M” value in test [2] (setting [6]) was found to be 25%.
Consider `CC1(C)Cc2cccc(OCC(O)CN3CC=C(c4cccc(C(F)(F)F)c4)CC3)c2O1.Cl` (stereo not drawn) [Example 8, 1-/3-(2,2-Dimethyl-2,3-dihydrobenzofuran-7-yloxy)-2-hydroxypropyl/-4-(3-trifluoromethyl-phenyl)-1,2,3,6-tetrahydropyridine hydrochloride], for which the “TTC change (in %) at 10^−5 M” value in test [2] (setting [5]) is 90%. In addition, the “TTC change (in %) at 10^−6 M” value in test [2] (setting [6]) was 43%.
Take `CCCC(C)(COC(N)=O)COC(N)=O` [meprobamate, 2-methyl-2-propyltri-methylenecarbamate, reference compound]: the “MED in mg/kg ip.” value in test [3] came out at 50 mg/kg.
For the molecule `COc1cccc(C2(O)CCN(CC(O)COc3cccc4c3OC(C)(C)C4)CC2)c1` (stereo not drawn) [Example 25, 1-/3-(2,2-Dimethyl-2,3-dihydrobenzofuran-7-yloxy)-2-hydroxypropyl/-4-hydroxy-4-(3-methoxyphenyl)-piperidine hydrochloride], the “anxiolytic effect compared with buspirone” value in test [4] (in words) is “superior by one order of magnitude to buspirone”. The “MED (in mg/kg) p.o.” value in test [4] worked out at 0.3 mg/kg. The molecule further returned a Ki in test [1] of 0.7 nM. In test [2], the “TTC change (in %) at 10^−5 M” value is reported as 59% and the “TTC change (in %) at 10^−6 M” value came out at 2%.
Regarding `CC1(C)Cc2cccc(OCC(O)CN3CCC(C#N)(c4ccccc4)CC3)c2O1.Cl` (stereo not drawn) [Example 41, 1-/3-(2,2-Dimethyl-2,3-dihydrobenzofuran-7-yloxy)-2-hydroxypropyl/-4-cyano-4-phenyl-piperidine hydrochloride], in test [2], the “TTC change (in %) at 10^−5 M” value came to 53% and the “TTC change (in %) at 10^−6 M” value amounted to 32%.
The molecule `COc1ccc(C2(O)CCN(CC(O)COc3cccc4c3OC(C)(C)C4)CC2)cc1` (stereo not drawn) [Example 26, 1-/3-(2,2-Dimethyl-2,3-dihydrobenzofuran-7-yloxy)-2-hydroxypropyl/-4-hydroxy-4-(4-methoxyphenyl)-piperidine] showed a Ki in test [1] of 3 nM. The “TTC change (in %) at 10^−6 M” value in test [2] is recorded as 43%.
Turning to `O=C1CC2(CCCC2)CC(=O)N1CCCCN1CCN(c2ncccn2)CC1` [buspirone, reference compound], the “MED (in mg/kg) p.o.” value in test [4] is reported as 3 mg/kg.

Usually Ki stands for the dissociation constant of the complex between target and ligand, obtained from inhibition or displacement. Higher therefore signals weaker binding.
